Measurements reported in patent publication US20120302516A1, “NANOPARTICLES FOR DRUG DELIVERY” (UNIVERSITY OF LOUISVILLE RESEARCH FOUNDATION, INC., priority 2009, published 2012).
Structures can show the parent of a compound that is named as a salt.

Experiments:
[1] = system: MCF-7 cells; assay: AEM field-induced drug release in MCF-7 cells; dead (floating) cells counted by hemocytometer after 48 h; type: cell-based, Human; details: AEM field exposure No, no Fe3O4, 0.3 mg Dox
Method: Breast cancer MCF-7 cells were treated with the resultant Dox-NP formulations, and the treated cells then were either allowed to incubate or briefly exposed to an AEM field to induce drug release from the Dox-NP formulations.
AEM field study. Results of MCF-7 cells treated with nanoparticle-doxorubicin formulations followed by alternating electromagnetic (AEM) field exposure (15 mins, 350 A, 203 KHz) were obtained. Cells plated in 30 mm dishes were treated with NP formulations at a 0.5 mg Fe3O4 dose unless otherwise specified. Doxorubicin loadings per mg NP formulation were as follows: dNP.AO.Dox (0.64 mg Dox/mg), sNP.AO.Dox (0.43 mg Dox/mg), NP.Dox (0.05 mg Dox/mg). […]
Cell culture toxicity study. Human breast cancer cells (MCF-7) were purchased from American Type Culture Collection (VA, USA). Cells were plated in 30 mm dishes at ˜4˜10^5 cells/dish, and then grown up to 50-60% confluency in DMEM, 1% Pennstrep (Mediatech, Inc, VA) and 10% FBS (Valley Biomedical, Winchester, Va.).
Alternating electromagnetic field-induced drug release in MCF-7 cells. […]
Each measured amount of NP formulation was diluted to 2 mL by adding DMEM containing 10% FBS. […]

[2] = AEM field-mediated release of FITC conjugates from NP.(AO).FITC particles, supernatant fluorescence (HPLC); type: physicochemical; details: water, AEM field 201.4 A, 203 kHz, 30 minutes, after washes
Excerpt: The fluorophore FITC-CHO was attached to iron oxide nanoparticles by reaction with NP-bound aminooxy compounds (previously described compounds 6.1, 7.1 and the diol analog of 7.1) to show the influence of resident hydroxyl functionality on the binding and release properties of derived iron oxide formulations. Scheme E below depicts the fluorophore aldehyde and the three oxime ether conjugates selected for this study. Using the stepwise synthesis method, FITC-CHO was mixed with NP-AO particles derived from the three aminooxy compounds to give the NP.(AO).FITC fluorophore formulations. […] The relative binding and release properties were measured by fluorescence spectroscopy on the supernatant solutions after magnetic separation of the nanoparticles and/or NP.(AO).FITC particles.
Integration of the supernatant fluorescence after NP washing and after AEM field irradiation is indicative of the binding to the nanoparticles and the release of FITC into the supernatant. […]
To a suspension of the NP.AO (3 mg) in methanol at room temperature was added a solution of FITC-CHO in methanol (0.01M, 50 μL/mg of NP.AO). […] The particles then were magnetically separated, the supernatant was removed and analyzed. The particles were washed twice with methanol (3× reaction volume) and the supernatants collected each time and analyzed. […]

SMILES	MCF-7 cell death, extent (major/minor) ([1]; continuation line of the cell death cell)	MCF-7 cell death ([1]; relative to 'cells only' control, 48 h)	release into supernatant (fluorescence) after AEM field exposure [2]
COc1cccc2c1C(=O)c1c(O)c3c(c(O)c1C2=O)C[C@@](O)(C(=O)CO)C[C@@H]3O[C@H]1C[C@H](N)[C@H](O)[C@H](C)O1 [Dox, doxorubicin.HCl]	(major)	Yes	
O=CCCCNC(=S)Nc1ccc(-c2c3ccc(=O)cc-3oc3cc(O)ccc23)c(C(=O)O)c1 [FITC-CHO]			no recovery of fluorescence after exposure to an AEM field
C[N+](CCO)(CCO)CCO/N=C/CCCNC(=S)Nc1ccc(-c2c3ccc(=O)cc-3oc3cc(O)ccc23)c(C(=O)O)c1 [FITC-III]			considerable FITC-conjugate is released into solution
